Measured values taken from patent US20230301895A1, “NAIL FORMULATIONS AND TREATMENT REGIMES” (NOVABIOTICS LIMITED, priority 2020, published 2023).
≈ marks a conversion by molar mass, not a printed value. Where a SMILES comes first, the peptide text is derived from it. [ ]: non-standard residue; d: D form. The star is where a group is joined. Sta = CC(C)C[C@H](N)[C@@H](O)CC(=O)O; Isovaleryl = CC(C)CC(=O)*

Tests used:
T. rubrum NCPF0118 [1] = format: cell-based, Trichophyton rubrum; details: for effect of protease inhibitor alone on growth: 1 mM PMSF, 1 mg/L Pepstatin A, 10 µM E-64; for effect of protease inhibitor alone on growth / growth inhibition by protease inhibitor alone: 100 µM EDTA; for growth inhibition by protease inhibitor alone: RPMI-1640, 1 mg/L PMSF, 10 µM E64, 1 mg/L pepstatin
Protocol: (§1) Antifungal susceptibility testing to determine the MIC was conducted by the broth microdilution procedure for filamentous fungi (M38-A2) (Clinical & Laboratory Standards Institute (CLSI). 2008. Reference Method for Broth Dilution Antifungal Susceptibility Testing of Filamentous Fungi; Approved Standard - Second Edition (M38-A2). Clinical and Laboratory Standards Institute, Wayne, PA). This experiment was carried out in triplicate with triplicate samples in each experiment. The proteolytic stability of NP213 was assessed by determining NP213 MIC as described above versus T. rubrum NCPF0118 and T. interdigitale NCPF0335 in the presence of the following protease inhibitors; serine proteases (1 mM phenylmethylsulfonyl fluoride; PMSF), metalloproteases (100 µM ethylenediaminetetraacetic acid; EDTA), aspartyl proteases (1 mg/L Pepstatin A) and cysteine proteases (10 µM trans-epoxysuccinyl-L-leucylamido(4-guanidino)butane; E-64).
(§2) T. rubrum NCPF0118 and T. interdigitale NCPF0335 in RPMI-1640 liquid medium. MIC was determined by the broth microdilution procedure (CLSI, 2008). Metalloprotease inhibitor -100 µM EDTA; Serine protease inhibitor - 1 mg/L PMSF; Cysteine protease inhibitor -10 µM E64; Aspartyl protease inhibitor - 1 mg/L pepstatin.
(§3) Antifungal susceptibility testing was conducted by the broth microdilution procedure as described in CLSI Approved Standard M38-A2. All peptides were dissolved in sterile deionised water (40 mg/ml) and stored at -20° C. until required. All experiments were carried out in triplicate, with triplicate samples in each experiment.

[2] = tested on: T. interdigitale NCPF0335; format: cell-based; details: for effect of protease inhibitor alone on growth: 1 mM PMSF, 1 mg/L Pepstatin A, 10 µM E-64; for effect of protease inhibitor alone on growth / growth inhibition by protease inhibitor alone: 100 µM EDTA; for growth inhibition by protease inhibitor alone: RPMI-1640, 1 mg/L PMSF, 10 µM E64, 1 mg/L pepstatin
Protocol: as §1, §2, §3

[3] = tested on: T. rubrum NCPF0118 and T. interdigitale NCPF0335; experiment: Antifungal susceptibility testing, summary statements for both dermatophytes; format: cell-based; details: Example 4 summary
Protocol: as §1
Antifungal susceptibility testing was carried out as described above, but with the following modifications. RPMI-1640 medium was substituted for 0.5% (w/v) powdered nail, skin keratin or sheep’s wool keratin suspensions in 10 mM sodium phosphate buffer, pH 7.0 containing 0.0025% (w/v) AlamarBlue™ (ThermoFisher Scientific, UK). […]

T. rubrum NCPF0118 [4] = experiment: Metabolic activity (Alamar blue) of T. rubrum exposed to NP213 in dried nail lacquers or PEG4000 formulation; format: cell-based, Trichophyton rubrum
Protocol: NP213 (5 and 10% w/v) was formulated in 50% (v/v) PEG4000. Alternatively, NP213 was dissolved/suspended in the lacquer formulations at concentrations of 0, 5 or 10 % (w/v). 10 µl of each lacquer was applied to the base of a well in a flat-bottomed 96-well plate in triplicate wells and allowed to dry for 90 min. An inoculum of 3 × 10^3 cfu T. rubrum NCPF0118 was prepared in 1 × RPMI-1640 liquid medium and 200 µl was added to all wells containing lacquers and control wells containing no lacquer (growth control). An additional 3 wells per plate contained 200 µl RPMI-1640 liquid medium without inoculum to serve as sterility controls. To each well was added a minimal volume of Alamar blue solution (0.0025% (w/v) final concentration). Antifungal activity was determined based on changes in metabolic activity (due to metabolism of the cell viability indicator Alamar blue). Metabolic activity was monitored by fluorescence (Ex 530 nm/Em 590 nm) every 24 h for up to 168 h.

[5] = tested on: Trichophyton rubrum NCPF0118; experiment: Experimental model of dermatophyte nail infection on human nail fragments, colony counts; format: cell-based; details: daily application to dorsal side of infected nail; FIG. 15
Protocol: An experimental model of dermatophyte nail infection was optimized to simulate onychomycosis under laboratory conditions and to test the antifungal efficacy of NP213. As an inert support and to provide a moist atmosphere, sterile water agar plates were prepared in 90-mm Petri dishes (1.5% (w/v) agar in sterile-deionised water). Petri dishes were divided into three sections, and individual pieces of sterile silicone rubber tubing (1-cm diameter; 3-mm height) were placed in each section, allowing the investigation of three nail fragments per plate. This prevented direct contact between the nails and the agar surface or the lid of the Petri dish. Such a setup was necessary because agar contains components that can bind to cationic peptides, including NP213, inhibiting their diffusion and reducing activity. Silicon tubing is permeable to oxygen and carbon dioxide, and its use ensured oxygen access to support fungal growth. Its diameter was sufficiently small to stably support the nail fragments. Uninfected human nails (sourced under ethical approval) were cleaned of all residual skin and debris before cutting to size (approximately four fragments were obtained from an adult great toenail), and their surface area and thickness were determined using a micrometer. […] Samples were plated on potato dextrose agar and incubated at 30° C. for 14 days, and the colonies were counted.

| Structure (SMILES) | effect of protease inhibitor alone on growth (T. rubrum NCPF0118 [1]) | growth inhibition by protease inhibitor alone (T. rubrum NCPF0118 [1]) | effect of protease inhibitor alone on growth [2] | growth inhibition by protease inhibitor alone [2] | MIC (mg/L) T.rubrum NCPF0118 (T. rubrum NCPF0118 [1]) [mg/L] | MIC (mg/L) T. interdigitale NPCF0335 [2] [mg/L] | further results |
| --- | --- | --- | --- | --- | --- | --- | --- |
| CC(C)C[C@H](NC(=O)[C@H]1O[C@@H]1C(=O)O)C(=O)NCCCCN=C(N)N (relative stereo) [Peptide E-64, trans-epoxysuccinyl-L-leucylamido(4-guanidino)butane] | no effect on the growth | did not inhibit growth | no effect on the growth | did not inhibit growth | – | – | – |
| CC(C)CC(=O)N[C@H](C(=O)N[C@H](C(=O)N[C@@H](CC(C)C)[C@@H](O)CC(=O)N[C@@H](C)C(=O)N[C@@H](CC(C)C)[C@@H](O)CC(=O)O)C(C)C)C(C)C [Pepstatin A] (Isovaleryl-VV[Sta]A[Sta]-OH) | no effect on the growth | did not inhibit growth | no effect on the growth | did not inhibit growth | – | – | – |
| N=C(N)NCCC[C@@H]1NC(=O)[C@H](CCCNC(=N)N)NC(=O)[C@H](CCCNC(=N)N)NC(=O)[C@H](CCCNC(=N)N)NC(=O)[C@H](CCCNC(=N)N)NC1=O [NP201, cyclic-5R] (cyclo(RRRRR)) | – | – | – | – | 500 (≈ 640 µM) | 1000 (≈ 1280 µM) | – |
| N=C(N)NCCC[C@@H]1NC(=O)[C@H](CCCNC(=N)N)NC(=O)[C@H](CCCNC(=N)N)NC(=O)[C@H](CCCNC(=N)N)NC(=O)[C@H](CCCNC(=N)N)NC(=O)[C@H](CCCNC(=N)N)NC(=O)[C@H](CCCNC(=N)N)NC(=O)[C@H](CCCNC(=N)N)NC(=O)[C@H](CCCNC(=N)N)NC(=O)[C@H](CCCNC(=N)N)NC(=O)[C@H](CCCNC(=N)N)NC1=O [NP202, cyclic 11 R] | – | – | – | – | 250 (≈ 146 µM) | 15.6 (≈ 9.08 µM) | – |
| O=S(=O)(F)Cc1ccccc1 [PMSF, phenylmethylsulfonyl fluoride] | no effect on the growth | did not inhibit growth | no effect on the growth | did not inhibit growth | – | – | – |
| O=C(O)CN(CCN(CC(=O)O)CC(=O)O)CC(=O)O [EDTA, ethylenediaminetetraacetic acid] | no effect on the growth | did not inhibit growth | no effect on the growth | did not inhibit growth | – | – | effect of metalloprotease inhibitor on the anti-fungal effect of the cyclic peptide [3]: enhanced |
| N=C(N)NCCC[C@@H]1NC(=O)[C@H](CCCNC(=N)N)NC(=O)[C@H](CCCNC(=N)N)NC(=O)[C@H](CCCNC(=N)N)NC(=O)[C@H](CCCNC(=N)N)NC(=O)[C@H](CCCNC(=N)N)NC(=O)[C@H](CCCNC(=N)N)NC(=O)[C@H](CCCNC(=N)N)NC(=O)[C@H](CCCNC(=N)N)NC(=O)[C@H](CCCNC(=N)N)NC(=O)[C@H](CCCNC(=N)N)NC(=O)[C@H](CCCNC(=N)N)NC(=O)[C@H](CCCNC(=N)N)NC(=O)[C@H](CCCNC(=N)N)NC(=O)[C@H](CCCNC(=N)N)NC1=O [NP203, cyclic 15R] | – | – | – | – | 62.5 (≈ 26.7 µM) | 3.9 (≈ 1.66 µM) | – |
| N=C(N)NCCC[C@@H]1NC(=O)[C@H](CCCNC(=N)N)NC(=O)[C@H](CCCNC(=N)N)NC(=O)[C@H](CCCNC(=N)N)NC(=O)[C@H](CCCNC(=N)N)NC(=O)[C@H](CCCNC(=N)N)NC(=O)[C@H](CCCNC(=N)N)NC1=O [NP213, cyclic R-R-R-R-R-R-R] | – | – | – | – | 1000 (≈ 915 µM) | 500 (≈ 457 µM) | MIC (mg/L) T.interdigitale NCPF0335 [2]: 500 mg/L (≈ 457 µM); antifungal activity in Roehm lacquer 1 compared to NP213 in 50% (v/v) PEG4000 (T. rubrum NCPF0118 [4]; 5% and 10% (w/v) NP213, metabolic activity up to 168 h, FIG. 1): lower; antifungal activity in Roehm lacquer 2 compared to NP213 in 50% (v/v) PEG4000 (T. rubrum NCPF0118 [4]; 5% and 10% (w/v) NP213, metabolic activity up to 168 h, FIG. 2): lower; antifungal activity in Roehm lacquer 3 compared to NP213 in 50% (v/v) PEG4000 (T. rubrum NCPF0118 [4]; 5% and 10% (w/v) NP213, metabolic activity up to 168 h, FIG. 3): lower; antifungal activity in Roehm lacquer 4 compared to NP213 in 50% (v/v) PEG4000 (T. rubrum NCPF0118 [4]; 5% and 10% (w/v) NP213, metabolic activity up to 168 h, FIG. 4): lower; antifungal activity in Roehm lacquer 5 compared to NP213 in 50% (v/v) PEG4000 (T. rubrum NCPF0118 [4]; 5% and 10% (w/v) NP213, metabolic activity up to 168 h, FIG. 5): lower; antifungal activity in Anacor lacquer C compared to NP213 in 50% (v/v) PEG4000 (T. rubrum NCPF0118 [4]; 5% and 10% (w/v) NP213, metabolic activity up to 168 h, FIG. 6): lower; antifungal activity in 2d lacquer compared to NP213 in 50% (v/v) PEG4000 (T. rubrum NCPF0118 [4]; 10% (w/v) NP213 in 2d lacquer, metabolic activity up to 168 h, FIG. 7): lower; efficacy in the known nail lacquers (T. rubrum NCPF0118 [4]; lacquers manufactured by Anacor and Roehm): not effective; time from beginning treatment until antifungal effects are seen [5]: ≤ 11 days |
| CC(C)C[C@H](NC(=O)[C@@H](O)[C@H](N)Cc1ccccc1)C(=O)O [Bestatin] | – | – | – | – | – | – | effect of metalloprotease inhibitor on the anti-fungal effect of the cyclic peptide [3]: enhanced |
